Results from ChEMBL document CHEMBL6074623, “Carbamoylation at C-8 position of natural 3-arylcoumarin scaffold for the discovery of novel PARP-1 inhibitors with potent anticancer activity” (Eur J Med Chem, 2024).
The source made the active and inactive calls. No cut-off for these calls is given here.

Columns and labels:
SUM149PT [1] = assay: Antiproliferative activity against human SUM149PT cells assessed as inhibition of cell growth incubated for 48 hrs by MTT assay; format: functional, cell-based
SUM149PT [2] = assay: Antiproliferative activity against human SUM149PT cells assessed as inhibition of cell growth at 20 uM incubated for 48 hrs by MTT assay relative to control; format: functional
CAPAN-1 [3] = assay: Antiproliferative activity against human CAPAN-1 cells assessed as inhibition of cell growth at 20 uM incubated for 48 hrs by MTT assay relative to control; format: functional
CAPAN-1 [4] = assay: Antiproliferative activity against human CAPAN-1 cells assessed as inhibition of cell growth at 5 uM incubated for 48 hrs by MTT assay relative to control; format: functional
Mitochondrial membrane = assay: Induction of mitochondrial membrane potential loss in human SUM149PT cells at 2 uM incubated for 48 hrs by JC-1 staining based confocal laser scanning microscopic analysis relative to niraparib
SUM149PT [5] = assay: Induction of cell cycle arrest in human SUM149PT cells assessed as accumulation of cells at G0/G1 phase at 0.1 uM incubated for 24 hrs by propidium iodide/RNase A staining based flow cytometry (reference value: 72.8 %); format: functional
SUM149PT [6] = assay: Induction of cell cycle arrest in human SUM149PT cells assessed as accumulation of cells at G2/M phase at 0.1 uM incubated for 24 hrs by propidium iodide/RNase A staining based flow cytometry (reference value: 5.54 %); format: functional
SUM149PT [7] = assay: Induction of cell cycle arrest in human SUM149PT cells assessed as accumulation of cells at G0/G1 phase at 0.5 uM incubated for 24 hrs by propidium iodide/RNase A staining based flow cytometry (reference value: 72.8 %); format: functional
SUM149PT [8] = assay: Induction of cell cycle arrest in human SUM149PT cells assessed as accumulation of cells at S phase at 0.5 uM incubated for 24 hrs by propidium iodide/RNase A staining based flow cytometry (reference value: 16.4 %); format: functional
SUM149PT [9] = assay: Induction of cell cycle arrest in human SUM149PT cells assessed as accumulation of cells at S phase at 2 uM incubated for 24 hrs by propidium iodide/RNase A staining based flow cytometry (reference value: 16.4 %); format: functional
SUM149PT [10] = assay: Induction of cell cycle arrest in human SUM149PT cells assessed as accumulation of cells at G2/M phase at 2 uM incubated for 24 hrs by propidium iodide/RNase A staining based flow cytometry (reference value: 5.54 %); format: functional
SUM149PT [11] = assay: Induction of cell cycle arrest in human SUM149PT cells assessed as accumulation of cells at G2/M phase at 0.1 uM incubated for 48 hrs by propidium iodide/RNase A staining based flow cytometry (reference value: […] %); format: functional
SUM149PT [12] = assay: Induction of cell cycle arrest in human SUM149PT cells assessed as accumulation of cells at S phase at 2 uM incubated for 48 hrs by propidium iodide/RNase A staining based flow cytometry (reference value: 18.7 %); format: functional
SUM149PT [13] = assay: Induction of apoptosis in human SUM149PT cells assessed as viable cells at 0.1 uM incubated for 24 hrs by Annexin V-FITC/PI staining based flow cytometry (reference value: 93.7 %); format: functional; details: read-out: Activity
SUM149PT [14] = assay: Induction of apoptosis in human SUM149PT cells assessed as early apoptotic cells at 0.1 uM incubated for 24 hrs by Annexin V-FITC/PI staining based flow cytometry (reference value: 2.59 %); format: functional
SUM149PT [15] = assay: Induction of apoptosis in human SUM149PT cells assessed as early apoptotic cells at 0.5 uM incubated for 24 hrs by Annexin V-FITC/PI staining based flow cytometry (reference value: 2.59 %); format: functional
SUM149PT [16] = assay: Induction of apoptosis in human SUM149PT cells assessed as late apoptotic cells at 0.5 uM incubated for 24 hrs by Annexin V-FITC/PI staining based flow cytometry (reference value: 2.45 %); format: functional
SUM149PT [17] = assay: Induction of apoptosis in human SUM149PT cells assessed as viable cells at 2 uM incubated for 24 hrs by Annexin V-FITC/PI staining based flow cytometry (reference value: 93.7 %); format: functional; details: read-out: Activity
SUM149PT [18] = assay: Induction of apoptosis in human SUM149PT cells assessed as necrotic cells at 2 uM incubated for 24 hrs by Annexin V-FITC/PI staining based flow cytometry (reference value: 1.27 %); format: functional
SUM149PT [19] = assay: Induction of apoptosis in human SUM149PT cells assessed as late apoptotic cells at 0.1 uM incubated for 48 hrs by Annexin V-FITC/PI staining based flow cytometry (reference value: 1.13 %); format: functional
SUM149PT [20] = assay: Induction of apoptosis in human SUM149PT cells assessed as necrotic cells at 0.1 uM incubated for 48 hrs by Annexin V-FITC/PI staining based flow cytometry (reference value: 0.51 %); format: functional
SUM149PT [21] = assay: Induction of apoptosis in human SUM149PT cells assessed as early apoptotic cells at 0.5 uM incubated for 48 hrs by Annexin V-FITC/PI staining based flow cytometry (reference value: 2.28 %); format: functional
SUM149PT [22] = assay: Induction of apoptosis in human SUM149PT cells assessed as necrotic cells at 0.5 uM incubated for 48 hrs by Annexin V-FITC/PI staining based flow cytometry (reference value: 0.51 %); format: functional
SUM149PT [23] = assay: Induction of apoptosis in human SUM149PT cells assessed as viable cells at 2 uM incubated for 48 hrs by Annexin V-FITC/PI staining based flow cytometry (reference value: 96.1 %); format: functional; details: read-out: Activity
SUM149PT [24] = assay: Induction of apoptosis in human SUM149PT cells assessed as early apoptotic cells at 2 uM incubated for 48 hrs by Annexin V-FITC/PI staining based flow cytometry (reference value: 2.28 %); format: functional
SUM149PT [25] = assay: Induction of apoptosis in human SUM149PT cells assessed as late apoptotic cells at 2 uM incubated for 48 hrs by Annexin V-FITC/PI staining based flow cytometry (reference value: 1.13 %); format: functional
SUM149PT [26] = assay: Induction of apoptosis in human SUM149PT cells assessed as upregulation of cleaved caspase-3 expression incubated for 48 hrs by Western blotting analysis; format: functional, cell-based
SUM149PT [27] = assay: Induction of apoptosis in human SUM149PT cells assessed as upregulation of cleaved PARP expression incubated for 48 hrs by Western blotting analysis; format: functional, cell-based
SUM149PT [28] = assay: Induction of apoptosis in human SUM149PT cells assessed as downregulation of BCL-2 expression incubated for 48 hrs by Western blotting analysis; format: functional, cell-based
MDA-MB-436 = assay: Antiproliferative activity against human MDA-MB-436 cells assessed as inhibition of cell growth at 20 uM incubated for 48 hrs by MTT assay relative to control; format: functional

## COc1cccc(-c2cc3cc(F)cc(C(N)=O)c3oc2=O)c1
SUM149PT [1]
  IC50: 620 nM
SUM149PT [2]
  inhibition at 20 µM: > 80%
CAPAN-1 [3]
  inhibition at 20 µM: > 60%
CAPAN-1 [4]
  inhibition at 5 µM: > 50%
Mitochondrial membrane
  Activity: Active
SUM149PT [5]
  Activity: 59.5%
SUM149PT [6]
  Activity: 6.91%
SUM149PT [7]
  Activity: 64.3%
SUM149PT [8]
  Activity: 17.4%
SUM149PT [9]
  Activity: 22.3%
SUM149PT [10]
  Activity: 36.8%
SUM149PT [11]
  Activity: 29.1%
SUM149PT [12]
  Activity: 18.5%
SUM149PT [13]
  viability at 0.1 µM: 91.5%
SUM149PT [14]
  Activity: 3.96%
SUM149PT [15]
  Activity: 5.61%
SUM149PT [16]
  Activity: 5.48%
SUM149PT [17]
  viability at 2 µM: 76.7%
SUM149PT [18]
  Activity: 6.61%
SUM149PT [19]
  Activity: 6%
SUM149PT [20]
  Activity: 1.22%
SUM149PT [21]
  Activity: 13.4%
SUM149PT [22]
  Activity: 11.9%
SUM149PT [23]
  viability at 2 µM: 61%
SUM149PT [24]
  Activity: 29.6%
SUM149PT [25]
  Activity: 6.85%
SUM149PT [26]
  Activity: Dose-dependent-effect
SUM149PT [27]
  Activity: Dose-dependent-effect
SUM149PT [28]
  Activity: Dose-dependent-effect
MDA-MB-436
  inhibition at 20 µM: < 40%
